Source: patent US20220160739A1, “METHODS FOR TREATING SUBJECTS WITH CHRONIC KIDNEY DISEASE” (Janssen Pharmaceutica NV, priority 2019, published 2022)

Tests used:
[1] = tested on: patients with type 2 diabetes mellitus (T2DM), Stage 2 or 3 chronic kidney disease (CKD) and macroalbuminuria; assay: Randomized, double-blind, placebo-controlled study of canagliflozin: safety and tolerability (adverse events); type: in vivo
Excerpt: This was a randomized, double-blind, event-driven, placebo-controlled, parallel-group, 2-arm, multicenter study to evaluate the effects of canagliflozin relative to placebo on progression to doubling of serum creatinine, end-stage kidney disease (ESKD), renal or cardiovascular (CV) death in patients with type 2 diabetes mellitus (T2DM), Stage 2 or 3 chronic kidney disease (CKD) and macroalbuminuria, who were receiving standard of care including a maximum tolerated labeled daily dose of an angiotensin-converting enzyme inhibitor (ACEi) or angiotensin receptor blocker (ARB). […] The safety objective was to assess the overall safety and tolerability of canagliflozin. […]
Treatment-emergent safety analyses and summaries were presented using the On-Treatment analysis set (i.e., all treated subjects through 30 days after last dose), whereas analyses of amputation, fracture, and malignancy were performed using the On-Study analysis set (i.e., all treated subjects through end of study).
Safety analyses were performed using either the On-Treatment analysis set (treated subjects up to 30 days of last dose) or the On-Study analysis set (treated subjects through the end of study).

[2] = tested on: patients with type 2 diabetes mellitus (T2DM), Stage 2 or 3 chronic kidney disease (CKD) and macroalbuminuria; assay: Randomized, double-blind, placebo-controlled study of canagliflozin: efficacy (renal and CV endpoints, HbA1c, body weight, blood pressure); type: in vivo, human
Excerpt: This was a randomized, double-blind, event-driven, placebo-controlled, parallel-group, 2-arm, multicenter study to evaluate the effects of canagliflozin relative to placebo on progression to doubling of serum creatinine, end-stage kidney disease (ESKD), renal or cardiovascular (CV) death in patients with type 2 diabetes mellitus (T2DM), Stage 2 or 3 chronic kidney disease (CKD) and macroalbuminuria, who were receiving standard of care including a maximum tolerated labeled daily dose of an angiotensin-converting enzyme inhibitor (ACEi) or angiotensin receptor blocker (ARB). […] The safety objective was to assess the overall safety and tolerability of canagliflozin.
Randomization included a 1:1 ratio to canagliflozin 100 mg or matching placebo, stratified by screening estimated glomerular filtration rate (eGFR) [≥30 to less than 45, ≥45 to less than 60, ≥60 to less than 90 mL/min/1.73 m^2]. The primary efficacy composite endpoint was the time to the first occurrence of doubling of serum creatinine, ESKD, and renal or CV death. The major secondary efficacy endpoints (tested in the following hierarchical order) included: • Composite of CV death and hospitalized heart failure • Composite of CV death, non-fatal MI, and non-fatal stroke (i.e., 3-point “MACE”) • Hospitalized heart failure • Composite of doubling of serum creatinine, ESKD, and renal death • CV death • All-cause death • Composite of CV death, non-fatal MI, non-fatal stroke, hospitalized heart failure, and hospitalized unstable angina
A planned interim analysis was conducted at 413 primary endpoints and the IDMC subsequently recommended to stop the study early for efficacy based on pre-specified stopping criteria.
The primary analysis was performed in the Intent-To-Treat (ITT) analysis set (i.e., all randomized subjects through end of study) using a stratified Cox proportional hazard model including treatment as the explanatory variable and stratified by screening eGFR. Secondary endpoints were similarly analyzed.
As a result of stopping at the interim analysis, the primary endpoint was tested at a two-sided significance level of 0.022 based on the alpha spending function, whereas secondary endpoints were tested at 0.038.
Analyses were performed to assess the impact of adjusting for postbaseline measurements of HbA1c and systolic blood pressure in the primary efficacy analysis. A series of proportional hazard regression models which included postbaseline HbA1c and systolic blood pressure measurements as time-varying covariates were fit. Because changes in HbA1c have a delayed effect on cardiovascular risk, several models were constructed. In each model, HbA1c was evaluated first using the single coincident value, a single lagged value, and then as a running mean average value. Single coincident systolic blood pressure measurements were used for all analyses.

[3] = Cox proportional hazards model, On-Study
[4] = denominators restricted to females
[5] = renal related AE by preferred term
[6] = canagliflozin compared to placebo, ITT
[7] = canagliflozin minus placebo, end of treatment

Cc1ccc(C2OC(CO)C(O)C(O)C2O)cc1Cc1ccc(-c2ccc(F)cc2)s1 (stereo not drawn) [Canagliflozin]
Adjudicated fracture: HR (vs. Placebo) [1, 3]: 0.98 | Atraumatic lower limb amputation: HR (vs. Placebo) [1, 3]: 1.11 | Final vital status: Alive n (%) ([1]; ITT analysis set, N = 2202): 2030 (92.2) | Final vital status: Died n (%) ([1]; ITT analysis set, N = 2202): 168 (7.6) | Adjudicated fracture: IRD (minus Placebo) ([1]; On-Study): −0.29 /1000 subject-years | Adjudicated fracture: incidence rate ([1]; On-Study): 11.80 /1000 subject-years | Adjudicated fracture: number of events ([1]; On-Study): 80 | Atraumatic lower limb amputation: IRD (minus Placebo) ([1]; On-Study): 1.16 /1000 subject-years | Atraumatic lower limb amputation: incidence rate ([1]; On-Study): 12.34 /1000 subject-years | Atraumatic lower limb amputation: number of events ([1]; On-Study): 87 | Adjudicated fracture: subjects with any event (%) ([1]; On-Study, N = 2200): (3.0) % | Atraumatic lower limb amputation: subjects with any event (%) ([1]; On-Study, N = 2200): (3.2) % | Adverse Events Leading to Discontinuation N (%) ([1]; On-Treatment, N = 2200): 267 (12.1) | Adverse Events Related to Study Drug N (%) ([1]; On-Treatment, N = 2200): 469 (21.3) | Adverse Events Related to Study Drug and Leading to Discontinuation N (%) ([1]; On-Treatment, N = 2200): 75 (3.4) | Any Adverse Events N (%) ([1]; On-Treatment, N = 2200): 1784 (81.1) | Death (fatal adverse event) N (%) ([1]; On-Treatment, N = 2200): 109 (5.0) | Renal related adverse events: total subjects with the AEs (%) ([1]; On-Treatment, N = 2200): (13.2) % | Serious Adverse Events Leading to Discontinuation N (%) ([1]; On-Treatment, N = 2200): 134 (6.1) | Serious Adverse Events N (%) ([1]; On-Treatment, N = 2200): 737 (33.5) | Serious Adverse Events Related to Study Drug N (%) ([1]; On-Treatment, N = 2200): 62 (2.8) | Serious Adverse Events Related to Study Drug and Leading to Discontinuation N (%) ([1]; On-Treatment, N = 2200): 16 (0.7) | Renal related adverse events: incidence rate ([1]; Table 8): 57.12 per 1000 person-years | Overall incidence rate of neoplasms ([1]; between the treatment groups): low and balanced between the treatment groups | Adjudicated diabetic ketoacidosis (DKA) IRD ([1]; canagliflozin compared to placebo): 1.73 per 1,000 subject-years | Adjudicated RCC incidence rate ([1]; canagliflozin group): 0.17 per 1000 patient-years | Adjudicated renal cell carcinoma (RCC): subjects ([1]; canagliflozin group): 1 subject | Adjudicated renal cell carcinoma (RCC): subjects (%) ([1]; canagliflozin group): < 0.1% | Adverse event cited as reason for treatment discontinuation ([1]; canagliflozin group): 12% | Female breast cancer incidence rate ([1]; canagliflozin group): 4.08 per 1000 patient-years | Hyperkalemia adverse events incidence rate ([1]; canagliflozin group): 29.74 per 1,000 subject-years | Renal-related adverse events: incidence rate ([1]; canagliflozin group): 57.12 per 1,000 subject-years | Volume depletion adverse events incidence rate ([1]; canagliflozin group): 28.36 per 1,000 subject-years | Malignancy (Breast) IRD, Canagliflozin vs. Placebo [1, 4]: 2.49 /1000 subject years | Malignancy (Breast) n (%) [1, 4]: 8 (1.1) | Malignancy (Breast) rate [1, 4]: 4.08 /1000 subject years | Adverse Events Leading to Discontinuation rate ([1]; exposure adjusted): 52.59 /1000 pt-yrs | Adverse Events Related to Study Drug and Leading to Discontinuation rate ([1]; exposure adjusted): 14.77 /1000 pt-yrs | Adverse Events Related to Study Drug rate ([1]; exposure adjusted): 92.38 /1000 pt-yrs | Death (fatal adverse event) rate ([1]; exposure adjusted): 21.47 /1000 pt-yrs | Serious Adverse Events Leading to Discontinuation rate ([1]; exposure adjusted): 26.39 /1000 pt-yrs | Serious Adverse Events Related to Study Drug and Leading to Discontinuation rate ([1]; exposure adjusted): 3.15 /1000 pt-yrs | Serious Adverse Events Related to Study Drug rate ([1]; exposure adjusted): 12.21 /1000 pt-yrs | Serious Adverse Events rate ([1]; exposure adjusted): 145.17 /1000 pt-yrs | Any Adverse Events rate ([1]; exposure adjusted, On-Treatment): 351.40 /1000 pt-yrs | Reports of pheochromocytoma or testicular cell cancer ([1]; in the study): no reports | Malignancy (Bladder) IRD, Canagliflozin vs. Placebo ([1]; post-randomization): 0.16 /1000 subject years | Malignancy (Bladder) rate ([1]; post-randomization): 1.73 /1000 subject years | Malignancy (Bladder) n (%) ([1]; post-randomization, N = 2200): 10 (0.5) | Acute kidney injury (%) [1, 5]: (3.9) % | Acute kidney injury n [1, 5]: 86 | Anuria (%) [1, 5]: (<0.1) % | Anuria n [1, 5]: 1 | Azotemia n [1, 5]: 0 | Blood Creatinine increased (%) [1, 5]: (6.5) % | Blood Creatinine increased n [1, 5]: 144 | Blood urea increased (%) [1, 5]: (1.0) % | Blood urea increased n [1, 5]: 21 | Glomerular filtration rate decreased (%) [1, 5]: (3.1) % | Glomerular filtration rate decreased n [1, 5]: 68 | Nephropathy toxic n [1, 5]: 0 | Renal failure (%) [1, 5]: (0.5) % | Renal failure n [1, 5]: 10 | Renal impairment (%) [1, 5]: (2.3) % | Renal impairment n [1, 5]: 50 | HbA1c placebo-subtracted difference of LS means for change from baseline ([2]; 30-45 eGFR stratum): 0.03 | HbA1c placebo-subtracted difference of LS means for change from baseline ([2]; 45-60 eGFR stratum): −0.18 | HbA1c placebo-subtracted difference of LS means for change from baseline ([2]; 60 to <90 eGFR stratum): −0.21 | Kaplan-Meier plot, primary composite endpoint: initial separation ([2]; FIG. 1, maintained across the entire study): 52 Week | Treatment HR for the primary efficacy outcome, adjusted for time-varying HbA1c and systolic blood pressure ([2]; HbA1c Concurrent in the Cox model): 0.724 | Treatment HR for the primary efficacy outcome, adjusted for time-varying HbA1c and systolic blood pressure ([2]; HbA1c Lagged By 1 Visit): 0.737 | Treatment HR for the primary efficacy outcome, adjusted for time-varying HbA1c and systolic blood pressure ([2]; HbA1c Running Mean): 0.740 | All-Cause Mortality (%) ([2]; ITT): (7.6) % | All-Cause Mortality EVRT ([2]; ITT): 29.04 per 1000 patient-years | All-Cause Mortality n/N ([2]; ITT): 168/2202 | Composite of CV Death/NFMI/NF Stroke/HHF/HUSA (%) ([2]; ITT): (12.4) % | Composite of CV Death/NFMI/NF Stroke/HHF/HUSA EVRT ([2]; ITT): 49.35 per 1000 patient-years | Composite of CV Death/NFMI/NF Stroke/HHF/HUSA n/N ([2]; ITT): 273/2202 | Composite of DoSC/ESKD/Renal Death (%) ([2]; ITT): (6.9) % | Composite of DoSC/ESKD/Renal Death EVRT ([2]; ITT): 26.99 per 1000 patient-years | Composite of DoSC/ESKD/Renal Death n/N ([2]; ITT): 153/2202 | HHF (%) ([2]; ITT): (4.0) % | HHF (hospitalized heart failure) n/N ([2]; ITT): 89/2202 | HHF EVRT ([2]; ITT): 15.65 per 1000 patient-years | MACE (%) ([2]; ITT): (9.9) % | MACE EVRT ([2]; ITT): 38.71 per 1000 patient-years | MACE n/N ([2]; ITT, CV death, non-fatal MI, non-fatal stroke): 217/2202 | Composite of CV Death/HHF (%) ([2]; ITT, canagliflozin 100 mg): (8.1) % | Composite of CV Death/HHF EVRT ([2]; ITT, canagliflozin 100 mg): 31.47 per 1000 patient-years | Composite of CV Death/HHF n/N ([2]; ITT, canagliflozin 100 mg): 179/2202 | Doubling of Serum Creatinine EVRT ([2]; ITT, canagliflozin 100 mg): 20.73 per 1000 patient-years | ESKD EVRT ([2]; ITT, canagliflozin 100 mg): 20.37 per 1000 patient-years | Primary Composite Endpoint EVRT (event rate) ([2]; ITT, canagliflozin 100 mg): 43.21 per 1000 patient-years | Renal Death EVRT ([2]; ITT, canagliflozin 100 mg): 0.35 per 1000 patient-years | Primary composite endpoint HR, supportive analysis ([2]; On-Treatment analysis set, vs placebo): 0.64 | Doubling of Serum Creatinine HR (95% CI) [2, 6]: 0.60 (0.48, 0.76) | ESKD HR (95% CI) [2, 6]: 0.68 (0.54, 0.86) | Body weight least-squares mean difference, change from baseline [2, 7]: −1.72% | HbA1c least-squares mean difference, change from baseline [2, 7]: −0.13% | Systolic blood pressure least-squares mean difference, change from baseline [2, 7]: −2.81 mmHg | Reduction of risk of the primary composite endpoint ([2]; compared to placebo, ITT): 30% | Reduction of risk of certain primary endpoints ([2]; on top of current standard of care that includes ACEi or ARB therapy): about 25% | Exploratory hard composite of ESKD, renal death and CV death HR ([2]; vs placebo): 0.73 | Composite of CV death and hospitalized heart failure HR ([2]; vs placebo, ITT): 0.69 | Composite of CV death and hospitalized heart failure risk reduction ([2]; vs placebo, ITT): 31% | Composite of doubling of serum creatinine, ESKD, and renal death HR ([2]; vs placebo, ITT): 0.66 | Composite of doubling of serum creatinine, ESKD, and renal death risk reduction ([2]; vs placebo, ITT): 34% | Hospitalization for heart failure HR ([2]; vs placebo, ITT): 0.61 | Hospitalization for heart failure risk reduction ([2]; vs placebo, ITT): 39% | MACE HR ([2]; vs placebo, ITT): 0.80 | MACE risk reduction ([2]; vs placebo, ITT): 20%
